This passage reports IC50 results from patent US20250154109A1, “SODIUM CHANNEL BLOCKING COMPOUNDS, DERIVATIVES THEREOF, AND METHODS OF THEIR USE” (LATIGO BIOTHERAPEUTICS, INC, priority 2022, published 2025).

The test addresses human Nav1.8 (Homo sapiens, UniProt Q9Y5Y9). Nature of the test: SyncroPatch384PE assay (automated patch clamp). Type of test: cell-based. To be noted: human Nav1.8/b3 CHO cells. On the technique in general: In patch-clamp work, channel activity is measured electrically.
The mark [1] stands for this setting: inactivated state block (P2 measurement), read-out: P2 IC50.
[2] abbreviates: resting state block (P1 measurement), read-out: P1 IC50.

Structures are written as SMILES. Read-outs that look alike come from different tables or passages of the source. A value given as a limit tells only on which side of the number the result lay.

human Nav1.8, sequence (Q9Y5Y9 whole entry): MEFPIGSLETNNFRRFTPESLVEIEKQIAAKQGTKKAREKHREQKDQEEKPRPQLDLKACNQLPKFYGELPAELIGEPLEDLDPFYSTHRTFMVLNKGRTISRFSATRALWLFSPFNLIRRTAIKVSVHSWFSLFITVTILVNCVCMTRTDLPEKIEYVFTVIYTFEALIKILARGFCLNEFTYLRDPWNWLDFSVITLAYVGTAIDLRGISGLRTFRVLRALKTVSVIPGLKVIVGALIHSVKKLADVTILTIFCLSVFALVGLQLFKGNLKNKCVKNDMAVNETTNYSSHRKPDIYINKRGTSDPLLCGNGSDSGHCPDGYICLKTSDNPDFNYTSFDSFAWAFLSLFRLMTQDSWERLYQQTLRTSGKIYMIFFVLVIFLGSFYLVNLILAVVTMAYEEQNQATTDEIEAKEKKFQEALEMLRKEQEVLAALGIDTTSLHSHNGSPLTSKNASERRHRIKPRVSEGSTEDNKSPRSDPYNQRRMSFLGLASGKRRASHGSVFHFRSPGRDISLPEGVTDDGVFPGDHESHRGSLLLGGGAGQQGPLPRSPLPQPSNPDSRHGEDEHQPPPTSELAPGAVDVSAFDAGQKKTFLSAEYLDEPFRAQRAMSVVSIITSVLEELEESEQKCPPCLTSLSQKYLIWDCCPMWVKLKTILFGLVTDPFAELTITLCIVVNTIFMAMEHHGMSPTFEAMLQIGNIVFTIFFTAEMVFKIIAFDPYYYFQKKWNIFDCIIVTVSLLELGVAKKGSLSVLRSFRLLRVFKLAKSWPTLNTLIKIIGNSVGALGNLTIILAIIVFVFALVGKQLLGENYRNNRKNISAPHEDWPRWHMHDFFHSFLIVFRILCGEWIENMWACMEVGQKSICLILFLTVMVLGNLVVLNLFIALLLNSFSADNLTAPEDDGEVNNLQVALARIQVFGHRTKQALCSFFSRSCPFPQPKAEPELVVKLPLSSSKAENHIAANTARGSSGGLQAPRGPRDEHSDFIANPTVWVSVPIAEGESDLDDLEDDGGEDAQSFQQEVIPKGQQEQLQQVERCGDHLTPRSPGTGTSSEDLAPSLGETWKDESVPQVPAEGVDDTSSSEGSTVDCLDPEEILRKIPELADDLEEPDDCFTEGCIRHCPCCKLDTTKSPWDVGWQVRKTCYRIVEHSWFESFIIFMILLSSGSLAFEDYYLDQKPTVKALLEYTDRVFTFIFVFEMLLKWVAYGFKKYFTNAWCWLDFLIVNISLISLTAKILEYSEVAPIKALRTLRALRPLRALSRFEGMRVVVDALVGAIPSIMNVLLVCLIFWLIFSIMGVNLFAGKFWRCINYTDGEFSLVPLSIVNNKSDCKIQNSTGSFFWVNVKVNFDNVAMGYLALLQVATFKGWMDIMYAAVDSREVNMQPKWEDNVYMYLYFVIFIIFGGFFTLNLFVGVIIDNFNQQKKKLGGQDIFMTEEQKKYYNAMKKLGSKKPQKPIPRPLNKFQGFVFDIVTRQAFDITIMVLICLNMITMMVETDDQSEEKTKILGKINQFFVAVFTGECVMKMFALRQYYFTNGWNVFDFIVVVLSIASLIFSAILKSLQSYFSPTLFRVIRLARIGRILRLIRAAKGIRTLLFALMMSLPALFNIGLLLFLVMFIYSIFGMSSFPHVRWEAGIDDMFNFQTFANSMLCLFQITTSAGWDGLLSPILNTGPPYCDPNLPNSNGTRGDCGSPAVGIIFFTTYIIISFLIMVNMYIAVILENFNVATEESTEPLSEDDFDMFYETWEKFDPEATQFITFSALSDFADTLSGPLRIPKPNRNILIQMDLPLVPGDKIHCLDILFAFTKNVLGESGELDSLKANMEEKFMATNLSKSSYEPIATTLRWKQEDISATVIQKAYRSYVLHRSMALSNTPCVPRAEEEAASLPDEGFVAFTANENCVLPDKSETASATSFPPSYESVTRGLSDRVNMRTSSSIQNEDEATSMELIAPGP

Usually IC50 stands for the concentration that gives 50% inhibition. In the case of `C[S@@](=N)(=O)c1cccc(NC(=O)c2cc(Cl)c(C(F)(F)F)cc2N2CCC(C(F)(F)F)CC2)c1` [Example 219, (R)-5-chloro-N-(3-(S-methylsulfonimidoyl)phenyl)-4-(trifluoromethyl)-2-(4-(trifluoromethyl)piperidin-1-yl)benzamide], the IC50 is, setting by setting: under setting [1], at most 5 nM; under setting [2], at most 5 nM.
As to `Cc1c(Cl)c(C(F)(F)F)nc(N2CCCC(F)(F)CC2)c1C(=O)Nc1cccc([S@](C)(=N)=O)c1` [Example 109, (R)-5-chloro-2-(4,4-difluoroazepan-1-yl)-4-methyl-N-(3-(S-methylsulfonimidoyl)phenyl)-6-(trifluoromethyl)nicotinamide], the IC50 under setting [1] is at most 5 nM and the IC50 under setting [2] was at most 5 nM.
Regarding `CS(=N)(=O)c1cccc(NC(=O)c2cc(C(F)(F)F)nnc2N2CCCCCC2)c1` (stereo not drawn) [Example 1, 3-(Azepan-1-yl)-N-(3-(S-methylsulfonimidoyl)phenyl)-6-(trifluoromethyl)pyridazine-4-carboxamide], the IC50 under setting [1] was above 200 nM and the IC50 under setting [2] was above 200 nM.
`Cc1c(-c2ccc(C(F)(F)F)cc2)cnc(N2CCCC(F)(F)CC2)c1C(=O)Nc1cccc([S@](C)(=N)=O)c1` [Example 169, (R)-2-(4,4-difluoroazepan-1-yl)-4-methyl-N-(3-(S-methylsulfonimidoyl)phenyl)-5-(4-(trifluoromethyl)phenyl)nicotinamide]: the IC50 was at most 5 nM under setting [1] and at most 5 nM under setting [2].
For `Cc1c(-c2c(F)cccc2F)cnc(N2CCCC(F)(F)CC2)c1C(=O)Nc1cccc(S(C)(=N)=O)c1` (stereo not drawn) [Example 104, 2-(4,4-difluoroazepan-1-yl)-5-(2,6-difluorophenyl)-4-methyl-N-(3-(S-methylsulfonimidoyl)phenyl)nicotinamide], the IC50 lay in the range of 5 to 50 nM under setting [1] and 5 to 50 nM under setting [2].
Take `Cc1c(-c2cccc(C#N)c2)cnc(N2CCCC(F)(F)CC2)c1C(=O)Nc1cccc(S(C)(=N)=O)c1` (stereo not drawn) [Example 91, 5-(3-cyanophenyl)-2-(4,4-difluoroazepan-1-yl)-4-methyl-N-(3-(S-methylsulfonimidoyl)phenyl)nicotinamide]: the half-inhibitory concentration (IC50) under setting [1] is 5 to 50 nM and the IC50 under setting [2] fell in the range of 5 to 50 nM.
In the case of `Cc1c(C(F)(F)F)nnc(N2CCCC(F)(F)CC2)c1C(=O)Nc1cccc([S@@](C)(=N)=O)c1` [Example 29, (S)-3-(4,4-Difluoroazepan-1-yl)-5-methyl-N-(3-(S-methylsulfonimidoyl)phenyl)-6-(trifluoromethyl)pyridazine-4-carboxamide], the 50% inhibitory concentration (IC50) reads like this: under setting [1], 5 to 50 nM; under setting [2], 5 to 50 nM.
`Cc1c(C(F)(F)F)nnc(N2CCCCCC2)c1C(=O)Nc1cccc([S@](C)(=N)=O)c1` [Example 10, (R)-3-(azepan-1-yl)-5-methyl-N-(3-(S-methylsulfonimidoyl)phenyl)-6-(trifluoromethyl)pyridazine-4-carboxamide]: the IC50 under setting [1] fell in the range of 50 to 100 nM and the half-inhibitory concentration (IC50) under setting [2] lay within 50 to 100 nM.
On to `CNCCN=[S@](C)(=O)c1cccc(NC(=O)c2c(N3CCCC(F)(F)CC3)ncc(-c3cnn(C)c3)c2C)c1` [Example 203, (R)-2-(4,4-difluoroazepan-1-yl)-4-methyl-5-(1-methyl-1H-pyrazol-4-yl)-N-(3-(S-methyl-N-(2-(methylamino)ethyl)sulfonimidoyl)phenyl)nicotinamide], for which the IC50 fell in the range of 5 to 50 nM under setting [1] and 5 to 50 nM under setting [2].
As for `CNCC(=O)N=[S@](C)(=O)c1cccc(NC(=O)c2c(N3CCCC(F)(F)CC3)nnc(C(F)(F)F)c2C)c1` [Example 43, (R)-3-(4,4-difluoroazepan-1-yl)-5-methyl-N-(3-(S-methyl-N-(methylglycyl)sulfonimidoyl)phenyl)-6-(trifluoromethyl)pyridazine-4-carboxamide], the half-inhibitory concentration (IC50) was at most 5 nM under setting [1] and at most 5 nM under setting [2].
With `CNCC(=O)N=[S@](C)(=O)c1cccc(NC(=O)c2c(N3CCCC(F)(F)CC3)ncc(C#CC3CC3)c2C)c1` [Example 64, (R)-5-(cyclopropylethynyl)-2-(4,4-difluoroazepan-1-yl)-4-methyl-N-(3-(S-methyl-N-(methylglycyl)sulfonimidoyl)phenyl)nicotinamide], the concentration for half-maximal inhibition (IC50) is at most 5 nM under setting [1] and at most 5 nM under setting [2].
On to `Cc1nc(N2CCCC(F)(F)CC2)c(C(=O)Nc2cccc([S@](C)(=N)=O)c2)c(C)c1Br` [Example 172, (R)-5-bromo-2-(4,4-difluoroazepan-1-yl)-4,6-dimethyl-N-(3-(S-methylsulfonimidoyl)phenyl)nicotinamide], for which the IC50 is, setting by setting: under setting [1], at most 5 nM; under setting [2], at most 5 nM.
With `Cc1c(-c2cn[nH]c2)cnc(N2CCCC(F)(F)CC2)c1C(=O)Nc1cccc([S@](C)(=N)=O)c1` [Example 144, (R)-2-(4,4-difluoroazepan-1-yl)-4-methyl-N-(3-(S-methylsulfonimidoyl)phenyl)-5-(1H-pyrazol-4-yl)nicotinamide], the 50% inhibitory concentration (IC50) under setting [1] was above 200 nM and the half-inhibitory concentration (IC50) under setting [2] was above 200 nM.
`Cc1c(C(F)(F)F)cnc(N2CCCC(F)(F)CC2)c1C(=O)Nc1cccc([S@@](C)(=O)=NC(=O)C(C)(C)N)c1` [Example 187, (R)-N-(3-(N-(2-amino-2-methylpropanoyl)-S-methylsulfonimidoyl)phenyl)-2-(4,4-difluoroazepan-1-yl)-4-methyl-5-(trifluoromethyl)nicotinamide]: the IC50 by setting is: under setting [1], at most 5 nM; under setting [2], at most 5 nM.
With `CS(=N)(=O)c1cc(NC(=O)c2cc(C(F)(F)F)nnc2N2CCCCCC2)ccn1` (stereo not drawn) [Example 2, 3-(azepan-1-yl)-N-{2-[imino(methyl)oxo-λ^6-sulfanyl]pyridin-4-yl}-6-(trifluoromethyl)pyridazine-4-carboxamide], the 50% inhibitory concentration (IC50) reads like this: under setting [1], above 200 nM; under setting [2], above 200 nM.
As for `Cc1c(-c2ccccc2)nnc(N2CCCC(F)(F)CC2)c1C(=O)Nc1cccc([S@](C)(=N)=O)c1` [Example 118, (R)-3-(4,4-difluoroazepan-1-yl)-5-methyl-N-(3-(S-methylsulfonimidoyl)phenyl)-6-phenylpyridazine-4-carboxamide], the IC50 lay in the range of 50 to 100 nM under setting [1] and 50 to 100 nM under setting [2].
Regarding `Cc1c(C(F)(F)F)cnc(N2CCCC(F)(F)CC2)c1C(=O)Nc1cccc([S@@](C)(=O)=NC(=O)[C@@H](C)O)c1` [Example 193, 2-(4,4-difluoroazepan-1-yl)-N-(3-((R)-N-((R)-2-hydroxypropanoyl)-S-methylsulfonimidoyl)phenyl)-4-methyl-5-(trifluoromethyl)nicotinamide], the IC50 runs as follows: under setting [1], at most 5 nM; under setting [2], at most 5 nM.
On to `Cc1c(C#N)cnc(N2CCCC(F)(F)CC2)c1C(=O)Nc1cccc(S(C)(=N)=O)c1` (stereo not drawn) [Example 97, 5-cyano-2-(4,4-difluoroazepan-1-yl)-4-methyl-N-(3-(S-methylsulfonimidoyl)phenyl)nicotinamide], for which the half-maximal inhibitory concentration (IC50) by setting is: under setting [1], 5 to 50 nM; under setting [2], 5 to 50 nM.
As for `C[S@+]([O-])c1cc(NC(=O)c2cc(Cl)c(C(F)(F)F)cc2N2CCCC(F)(F)CC2)ccc1F` [Example 205, (S)-5-chloro-2-(4,4-difluoroazepan-1-yl)-N-(4-fluoro-3-(methylsulfinyl)phenyl)-4-(trifluoromethyl)benzamide], the IC50 reads like this: under setting [1], at most 5 nM; under setting [2], at most 5 nM.
On to `CNCC(=O)N=[S@](C)(=O)c1cccc(NC(=O)c2c(N3CCCC(F)(F)CC3)nc(C(F)(F)F)c(C#N)c2C)c1` [Example 65, (R)-5-cyano-2-(4,4-difluoroazepan-1-yl)-4-methyl-N-(3-(S-methyl-N-(methylglycyl)sulfonimidoyl)phenyl)-6-(trifluoromethyl)nicotinamide], for which the half-inhibitory concentration (IC50) is, setting by setting: under setting [1], at most 5 nM; under setting [2], at most 5 nM.
`Cc1c(-c2cnco2)cnc(N2CCCC(F)(F)CC2)c1C(=O)Nc1cccc([S@](C)(=N)=O)c1` [Example 147, (R)-2-(4,4-difluoroazepan-1-yl)-4-methyl-N-(3-(S-methylsulfonimidoyl)phenyl)-5-(oxazol-5-yl)nicotinamide]: the 50% inhibitory concentration (IC50) is, setting by setting: under setting [1], 5 to 50 nM; under setting [2], 5 to 50 nM.
With `Cc1c(C(F)(F)F)nnc(N2CCCCCC2)c1C(=O)Nc1cccc(S(C)(=N)=O)c1` (stereo not drawn) [Example 7, 3-(azepan-1-yl)-5-methyl-N-(3-(S-methylsulfonimidoyl)phenyl)-6-(trifluoromethyl)pyridazine-4-carboxamide], the IC50 under setting [1] is 100 to 200 nM and the IC50 under setting [2] was 100 to 200 nM.
`Cc1c(-c2ccc3c(c2)OCCO3)cnc(N2CCCC(F)(F)CC2)c1C(=O)Nc1cccc([S@](C)(=N)=O)c1` [Example 47, (R)-2-(4,4-difluoroazepan-1-yl)-5-(2,3-dihydrobenzo[b][1,4]dioxin-6-yl)-4-methyl-N-(3-(S-methylsulfonimidoyl)phenyl)nicotinamide]: the IC50 under setting [1] lay in the range of 5 to 50 nM and the IC50 under setting [2] is 5 to 50 nM.
As to `Cc1c(-c2cccc(F)c2)cnc(N2CCCC(F)(F)CC2)c1C(=O)Nc1cccc([S@](C)(=N)=O)c1` [Example 110, (R)-2-(4,4-difluoroazepan-1-yl)-5-(3-fluorophenyl)-4-methyl-N-(3-(S-methylsulfonimidoyl)phenyl)nicotinamide], the IC50 by setting is: under setting [1], at most 5 nM; under setting [2], at most 5 nM.
On to `Cc1c(-c2cnn(C)c2)nnc(N2CCCC(F)(F)CC2)c1C(=O)Nc1cccc([S@](C)(=N)=O)c1` [Example 71, (R)-3-(4,4-difluoroazepan-1-yl)-5-methyl-6-(1-methyl-1H-pyrazol-4-yl)-N-(3-(S-methylsulfonimidoyl)phenyl)pyridazine-4-carboxamide], for which the half-maximal inhibitory concentration (IC50) is, setting by setting: under setting [1], above 200 nM; under setting [2], above 200 nM.
In the case of `CS(=N)(=O)c1cccc(NC(=O)c2nnc(C(F)(F)F)cc2N2CCCC(F)(F)CC2)c1` (stereo not drawn) [Example 21, 4-(4,4-difluoroazepan-1-yl)-N-(3-(S-methylsulfonimidoyl)phenyl)-6-(trifluoromethyl)pyridazine-3-carboxamide], the IC50 under setting [1] is above 200 nM and the IC50 under setting [2] is above 200 nM.
In the case of `Cc1c(C#N)cnc(N2CCCC(F)(F)CC2)c1C(=O)Nc1cccc([S@](C)(=N)=O)c1` [Example 125, (R)-5-cyano-2-(4,4-difluoroazepan-1-yl)-4-methyl-N-(3-(S-methylsulfonimidoyl)phenyl)nicotinamide], the IC50 by setting is: under setting [1], 5 to 50 nM; under setting [2], 5 to 50 nM.
